Experimental data: ChEMBL document CHEMBL5236661, “A new selective inhibitor for IMP-1 metallo-β-lactamase, 3Z,5E-octa-3,5-diene-1,3,4-tricarboxylic acid-3,4-anhydride” (Bioorg Med Chem, 2023)
Values after ≈ are worked out from the molar mass of the structure shown. Active and inactive are the calls of the source. The rule behind the calls is not given here.

Key:
[1] = test system: Pseudomonas aeruginosa; assay: Antibacterial activity against Pseudomonas aeruginosa KB367 expressing IMP-1 assessed as inhibition of bacterial growth at 30 ug in absence of meropenem incubated overnight by paper disk method; type: functional, organism-based; conditions: dose 30.0 µg
[2] = test system: Escherichia coli; assay: Antibacterial activity against Escherichia coli KB366 expressing IMP-1 assessed as inhibition of bacterial growth at 1 ug in absence of meropenem incubated overnight by paper disk method; type: functional, organism-based; conditions: dose 1.0 µg
[3] = test system: Pseudomonas aeruginosa; assay: Antibacterial activity against Pseudomonas aeruginosa KB367 expressing IMP-1 assessed as inhibition of bacterial growth at 1 ug in absence of meropenem incubated overnight by paper disk method; type: functional, organism-based; conditions: dose 1.0 µg
[4] = test system: Escherichia coli; assay: Antibacterial activity against Escherichia coli KB366 expressing IMP-1 assessed as inhibition of bacterial growth at 3 ug in absence of meropenem incubated overnight by paper disk method; type: functional, organism-based; conditions: dose 3.0 µg
[5] = test system: Escherichia coli; assay: Antibacterial activity against Escherichia coli KB366 expressing IMP-1 assessed as inhibition of bacterial growth at 100 ug in presence of meropenem incubated overnight by paper disk method; type: functional; conditions: read-out: IZ
[6] = test system: Pseudomonas aeruginosa; assay: Antibacterial activity against Pseudomonas aeruginosa KB367 expressing IMP-1 assessed as inhibition of bacterial growth at 10 ug in presence of meropenem incubated overnight by paper disk method; type: functional; conditions: for inhibition zone (IZ): dose 10.0 µg; for zone of inhibition at 10 µg/disc: read-out: IZ
[7] = test system: Escherichia coli; assay: Antibacterial activity against Escherichia coli KB366 expressing IMP-1 assessed as inhibition of bacterial growth at 0.3 ug in presence of meropenem incubated overnight by paper disk method; type: functional; conditions: for zone of inhibition at 0.3 µg/disc: read-out: IZ
[8] = test system: Pseudomonas aeruginosa; assay: Antibacterial activity against Pseudomonas aeruginosa KB367 expressing IMP-1 assessed as inhibition of bacterial growth at 1 ug in presence of meropenem incubated overnight by paper disk method; type: functional; conditions: dose 1.0 µg
[9] = test system: Escherichia coli; assay: Antibacterial activity against Escherichia coli KB366 expressing IMP-1 assessed as inhibition of bacterial growth at 100 ug in absence of meropenem incubated overnight by paper disk method; type: functional, organism-based; conditions: dose 100.0 µg
[10] = test system: Pseudomonas aeruginosa; assay: Antibacterial activity against Pseudomonas aeruginosa KB367 expressing IMP-1 assessed as inhibition of bacterial growth at 100 ug in presence of meropenem incubated overnight by paper disk method; type: functional; conditions: for zone of inhibition at 100 µg/disc: read-out: IZ
[11] = test system: Escherichia coli; assay: Antibacterial activity against Escherichia coli KB366 expressing IMP-1 assessed as inhibition of bacterial growth at 30 ug in absence of meropenem incubated overnight by paper disk method; type: functional, organism-based; conditions: dose 30.0 µg
[12] = test system: Escherichia coli; assay: Antibacterial activity against Escherichia coli KB366 expressing IMP-1 assessed as inhibition of bacterial growth at 30 ug in presence of meropenem incubated overnight by paper disk method; type: functional; conditions: read-out: IZ
[13] = test system: Pseudomonas aeruginosa; assay: Antibacterial activity against Pseudomonas aeruginosa KB367 expressing IMP-1 assessed as inhibition of bacterial growth at 3 ug in absence of meropenem incubated overnight by paper disk method; type: functional, organism-based; conditions: dose 3.0 µg
[14] = Inhibition of bacterial Metallo-beta-lactamase IMP-1 using nitrocefin as substrate pre-incubated for 15 mins followed by substrate addition by microplate reader; set-up: species or system Bacteria
[15] = test system: Pseudomonas aeruginosa; assay: Antibacterial activity against Pseudomonas aeruginosa KB367 expressing IMP-1 assessed as inhibition of bacterial growth at 0.3 ug in presence of meropenem incubated overnight by paper disk method; type: functional, organism-based; conditions: dose 0.3 µg
[16] = test system: Pseudomonas aeruginosa; assay: Antibacterial activity against Pseudomonas aeruginosa KB367 expressing IMP-1 assessed as inhibition of bacterial growth at 3 ug in presence of meropenem incubated overnight by paper disk method; type: functional; conditions: for inhibition zone (IZ): dose 3.0 µg
[17] = test system: Escherichia coli; assay: Antibacterial activity against Escherichia coli KB366 expressing IMP-1 assessed as inhibition of bacterial growth at 10 ug in absence of meropenem incubated overnight by paper disk method; type: functional, organism-based; conditions: dose 10.0 µg
[18] = test system: Escherichia coli; assay: Antibacterial activity against Escherichia coli KB366 expressing IMP-1 assessed as inhibition of bacterial growth at 0.3 ug in absence of meropenem incubated overnight by paper disk method; type: functional, organism-based; conditions: dose 0.3 µg
[19] = test system: Pseudomonas aeruginosa; assay: Antibacterial activity against Pseudomonas aeruginosa KB367 expressing IMP-1 assessed as inhibition of bacterial growth at 30 ug in presence of meropenem incubated overnight by paper disk method; type: functional; conditions: for zone of inhibition at 30 µg/disc: read-out: IZ
[20] = test system: Pseudomonas aeruginosa; assay: Antibacterial activity against Pseudomonas aeruginosa KB367 expressing IMP-1 assessed as inhibition of bacterial growth at 100 ug in absence of meropenem incubated overnight by paper disk method; type: functional, organism-based; conditions: dose 100.0 µg
[21] = test system: Pseudomonas aeruginosa; assay: Antibacterial activity against Pseudomonas aeruginosa KB367 expressing IMP-1 assessed as inhibition of bacterial growth at 0.1 ug in presence of meropenem incubated overnight by paper disk method; type: functional, organism-based; conditions: dose 0.1 µg
[22] = test system: Escherichia coli; assay: Antibacterial activity against Escherichia coli KB366 expressing IMP-1 assessed as inhibition of bacterial growth at 1 ug in presence of meropenem incubated overnight by paper disk method; type: functional; conditions: read-out: IZ
[23] = test system: Pseudomonas aeruginosa; assay: Antibacterial activity against Pseudomonas aeruginosa KB367 expressing IMP-1 assessed as inhibition of bacterial growth at 0.1 ug in absence of meropenem incubated overnight by paper disk method; type: functional, organism-based; conditions: dose 0.1 µg
[24] = test system: Escherichia coli; assay: Antibacterial activity against Escherichia coli KB366 expressing IMP-1 assessed as inhibition of bacterial growth at 10 ug in presence of meropenem incubated overnight by paper disk method; type: functional; conditions: read-out: IZ
[25] = test system: Pseudomonas aeruginosa; assay: Antibacterial activity against Pseudomonas aeruginosa KB367 expressing IMP-1 assessed as inhibition of bacterial growth at 0.3 ug in absence of meropenem incubated overnight by paper disk method; type: functional, organism-based; conditions: dose 0.3 µg
[26] = test system: Escherichia coli; assay: Antibacterial activity against Escherichia coli KB366 expressing IMP-1 assessed as inhibition of bacterial growth at 3 ug in presence of meropenem incubated overnight by paper disk method; type: functional; conditions: read-out: IZ
[27] = test system: Pseudomonas aeruginosa; assay: Antibacterial activity against Pseudomonas aeruginosa KB367 expressing IMP-1 assessed as inhibition of bacterial growth at 10 ug in absence of meropenem incubated overnight by paper disk method; type: functional, organism-based; conditions: dose 10.0 µg
[28] = test system: Escherichia coli; assay: Antibacterial activity against Escherichia coli KB366 expressing IMP-1 assessed as inhibition of bacterial growth at 0.1 ug in presence of meropenem incubated overnight by paper disk method; type: functional; conditions: for inhibition zone (IZ): dose 0.1 µg
[29] = test system: Escherichia coli; assay: Antibacterial activity against Escherichia coli KB366 expressing IMP-1 assessed as inhibition of bacterial growth at 0.1 ug in absence of meropenem incubated overnight by paper disk method; type: functional, organism-based; conditions: dose 0.1 µg
[30] = test system: Escherichia coli; assay: Antibacterial activity against Escherichia coli KB366 expressing IMP-1 assessed as inhibition of bacterial growth at 0.01 ug in absence of meropenem incubated overnight by paper disk method; type: functional, organism-based; conditions: dose 0.01 µg
[31] = test system: Escherichia coli; assay: Antibacterial activity against Escherichia coli KB366 expressing IMP-1 assessed as inhibition of bacterial growth at 0.03 ug in absence of meropenem incubated overnight by paper disk method; type: functional, organism-based; conditions: dose 0.03 µg
[32] = test system: Escherichia coli; assay: Antibacterial activity against Escherichia coli KB366 expressing IMP-1 assessed as inhibition of bacterial growth at 0.03 ug in presence of meropenem incubated overnight by paper disk method; type: functional
[33] = test system: Escherichia coli; assay: Antibacterial activity against Escherichia coli KB366 expressing IMP-1 assessed as inhibition of bacterial growth at 0.01 ug in presence of meropenem incubated overnight by paper disk method; type: functional

Row | IC50 [14] [µg/mL] | Structure (SMILES) | inhibition zone (IZ) [1] | inhibition zone (IZ) [2] | inhibition zone (IZ) [3] | inhibition zone (IZ) [4] | zone of inhibition at 100 µg/disc [5] [mm] | inhibition zone (IZ) [8] | inhibition zone (IZ) [11] | inhibition zone (IZ) [13] | inhibition zone (IZ) [15] | inhibition zone (IZ) [17] | inhibition zone (IZ) [18] | inhibition zone (IZ) [20] | inhibition zone (IZ) [21] | zone of inhibition at 1 µg/disc [22] [mm] | inhibition zone (IZ) [23] | zone of inhibition at 10 µg/disc [24] [mm] | inhibition zone (IZ) [25] | zone of inhibition at 3 µg/disc [26] [mm] | inhibition zone (IZ) [27] | further results
1 | > 10 | CC/C=C/C1=C(CCCOCc2ccccc2)C(=O)OC1=O | – | – | – | – | – | – | – | – | – | – | – | – | – | – | – | – | – | – | – | –
2 | 3 (≈ 15.4 µM) | CC/C=C/C1=C(CCC)C(=O)OC1=O | inactive | inactive | inactive | inactive | – | inactive | inactive | inactive | inactive | inactive | inactive | inactive | inactive | 17 | inactive | 24 | inactive | 18 | inactive | inhibition zone (IZ) [30]: inactive; inhibition zone (IZ) [6]: inactive; zone of inhibition at 0.3 µg/disc [7]: 15 mm; zone of inhibition at 0.1 µg/disc ([28]; read-out: IZ): 13 mm; inhibition zone (IZ) [31]: inactive; inhibition zone (IZ) [16]: inactive; zone of inhibition at 0.03 µg/disc ([32]; read-out: IZ): 9 mm; zone of inhibition at 30 µg/disc [19]: 10 mm; inhibition zone (IZ) [29]: inactive; zone of inhibition at 0.01 µg/disc ([33]; read-out: IZ): 9 mm
3 | 5.9 (≈ 23.4 µM) | CC/C=C/C1=C(CCCOC(C)=O)C(=O)OC1=O | – | – | – | – | – | – | – | – | – | – | – | – | – | – | – | – | – | – | – | –

Continued, compound first:

Row | Structure (SMILES) | IC50 [14] [µg/mL] | inhibition zone (IZ) [1] | inhibition zone (IZ) [2] | inhibition zone (IZ) [3] | inhibition zone (IZ) [4] | zone of inhibition at 100 µg/disc [5] [mm] | inhibition zone (IZ) [8] | inhibition zone (IZ) [11] | inhibition zone (IZ) [13] | inhibition zone (IZ) [15] | inhibition zone (IZ) [17] | inhibition zone (IZ) [18] | inhibition zone (IZ) [20] | inhibition zone (IZ) [21] | zone of inhibition at 1 µg/disc [22] [mm] | inhibition zone (IZ) [23] | zone of inhibition at 10 µg/disc [24] [mm] | inhibition zone (IZ) [25] | zone of inhibition at 3 µg/disc [26] [mm] | inhibition zone (IZ) [27] | further results
4 | CC/C=C/C1=C(c2ccc(OCOC)c(OCOC)c2)C(=O)OC1=O | 9.49 (≈ 27.2 µM) | inactive | inactive | inactive | inactive | 27 | inactive | inactive | inactive | inactive | inactive | inactive | inactive | inactive | 14 | inactive | 20 | inactive | 16 | inactive | inhibition zone (IZ) [6]: inactive; zone of inhibition at 0.3 µg/disc [7]: 11 mm; inhibition zone (IZ) [9]: inactive; inhibition zone (IZ) ([10]; dose 100.0 µg): inactive; zone of inhibition at 30 µg/disc [12]: 23 mm; inhibition zone (IZ) [16]: inactive; inhibition zone (IZ) ([19]; dose 30.0 µg): inactive
5 | CC/C=C/C1=C(CCC(=O)O)C(=O)OC1=O | 67.3 (≈ 300 µM) | – | – | – | – | – | – | – | – | – | – | – | – | – | – | – | – | – | – | – | –
6 | CC/C=C/C1=C(CCCOS(C)(=O)=O)C(=O)OC1=O | > 10 | – | – | – | – | – | – | – | – | – | – | – | – | – | – | – | – | – | – | – | –
7 | CC/C=C/C1=C(CCC(=O)OC)C(=O)OC1=O | 4.3 (≈ 18 µM) | inactive | inactive | inactive | inactive | 33 | inactive | inactive | inactive | inactive | inactive | inactive | inactive | inactive | 19 | inactive | 26 | inactive | 23 | inactive | zone of inhibition at 10 µg/disc [6]: 11 mm; inhibition zone (IZ) ([7]; dose 0.3 µg): inactive; inhibition zone (IZ) [28]: inactive; inhibition zone (IZ) [9]: inactive; zone of inhibition at 100 µg/disc [10]: 20 mm; zone of inhibition at 30 µg/disc [12]: 28 mm; zone of inhibition at 3 µg/disc ([16]; read-out: IZ): 9 mm; zone of inhibition at 30 µg/disc [19]: 16 mm; inhibition zone (IZ) [29]: inactive
8 | CC/C=C/C1=C(c2ccc(O)c(O)c2)C(=O)OC1=O | 3.74 (≈ 14.4 µM) | inactive | inactive | inactive | inactive | 31 | inactive | inactive | inactive | inactive | inactive | inactive | inactive | inactive | 16 | inactive | 23 | inactive | 18 | inactive | inhibition zone (IZ) [30]: inactive; zone of inhibition at 10 µg/disc [6]: 9 mm; zone of inhibition at 0.3 µg/disc [7]: 11 mm; inhibition zone (IZ) [28]: inactive; inhibition zone (IZ) [9]: inactive; zone of inhibition at 100 µg/disc [10]: 18 mm; zone of inhibition at 30 µg/disc [12]: 27 mm; inhibition zone (IZ) [31]: inactive; inhibition zone (IZ) [16]: inactive; inhibition zone (IZ) ([32]; dose 0.03 µg): inactive; zone of inhibition at 30 µg/disc [19]: 14 mm; inhibition zone (IZ) [29]: inactive; inhibition zone (IZ) ([33]; dose 0.01 µg): inactive
